# Square brackets hold non-standard residues; d marks the D form. Peptide text beside a SMILES is read from it. Nle = CCCC[C@H](N)C(=O)O
# Legend:
# [1] = target: T1, human PTHR, G protein-uncoupled conformation (R^0) (Homo sapiens, UniProt Q03431); experiment: Competition binding to R0 conformation of hPTHR (COS-7 membranes, GTPγS, 125I-PTH(1-34) tracer); settings: Table 5, fold weaker affinity for R0 than RG
# T1 construct: expressed in transfected cells; host or cells: COS-7, transient (Fugene-6)
# T1 sequence (Q03431 27-593): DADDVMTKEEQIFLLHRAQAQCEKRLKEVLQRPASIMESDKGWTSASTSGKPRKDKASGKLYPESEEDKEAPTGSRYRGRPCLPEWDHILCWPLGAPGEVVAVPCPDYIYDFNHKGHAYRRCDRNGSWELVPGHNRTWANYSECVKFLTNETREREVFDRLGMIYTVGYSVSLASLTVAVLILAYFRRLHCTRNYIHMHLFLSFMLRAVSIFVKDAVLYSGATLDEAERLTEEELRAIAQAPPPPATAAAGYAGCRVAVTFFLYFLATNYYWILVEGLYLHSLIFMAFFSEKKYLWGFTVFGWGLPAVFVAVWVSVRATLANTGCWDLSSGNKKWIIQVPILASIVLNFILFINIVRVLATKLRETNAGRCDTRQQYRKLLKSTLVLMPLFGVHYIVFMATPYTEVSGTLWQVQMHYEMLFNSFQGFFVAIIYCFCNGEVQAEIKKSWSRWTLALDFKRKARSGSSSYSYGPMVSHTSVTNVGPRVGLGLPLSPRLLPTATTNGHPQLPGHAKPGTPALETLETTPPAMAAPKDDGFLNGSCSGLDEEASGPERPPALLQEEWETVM
# In short: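 Bound versus free radioligand was separated by vacuum filtration after 90 min incubation of COS-7 hPTHR membranes (20-100 μg/mL) with tracer and competing peptides. Non-specific binding came from a saturating unlabeled analog.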
# hPTHR [2] = target: T2, hPTHR (Homo sapiens, UniProt Q03431); experiment: Delayed cAMP response after ligand wash-out in HKRK-B64 cells; assay type: cell-based; parameters: expressed in transfected cells; settings: HKRK-B64, 60 minutes after wash-out; read-out: cAMP response after wash-out, % of maximum response
# T2 sequence (Q03431 27-593): T1 sequence (Q03431 27-593)
# Procedure: The cells were pre-treated for 10 minutes with either buffer alone (basal) or buffer containing ligand (100 nM); at t=0, the cells were washed, incubated in buffer for the times indicated (wash-out phase), treated with 3-isobutyl-1-methylxanthine (IBMX) for five minutes, and then assessed for intracellular cAMP. […] The cAMP level in cells treated with IBMX in the absence of ligand was 2.0±0.3 pmole/well. Data are means (±s.e.m.) of three experiments, each performed in duplicate. […] Analogs were similarly assessed in HKRK-B64 cells (90,000 hPTHRs/cell) at a single time-point, 60 minutes after ligand wash-out (FIG. 5B). For each peptide, the data are expressed as a percentile of the maximum cAMP responses (indicated in side panel) produced in cells treated concomitantly with that ligand and IBMX for 10 minutes and omitting the wash-out phase. […] Data are means (±s.e.m) of four experiments, each performed in triplicate.
# The capacity of the ligands to produce sustained (or delayed) cAMP signaling responses was further examined in HKRK-B64 cells, which express the hPTHR at a more physiological level than do HKRK-B7 cells (90,000 per cell vs. 950,000/cell).
# The capacities of ligands to produce a delayed cAMP response in cells after a brief exposure to the ligand was assessed as follows. The cells in 24-well plates were rinsed in binding buffer (50 mM Tris-HCl, pH 7.7, 100 mM NaCl, 5 mM KCl, 2 mM CaCl2, 5% heat-inactivated horse serum, 0.5% heat-inactivated fetal bovine serum) and then incubated in binding buffer with or without a peptide ligand (1×10^−7 or 3×10^−7 M) for 10 minutes at room temperature; the buffer was then removed, the cells were washed three times with binding buffer, incubated further in binding buffer for varying times (1 to 120 minutes); the buffer was then replaced by binding buffer containing IBMX (2 mM), and after an additional five minute incubation, the intracellular cAMP was quantified.
# hPTHR [3] = target: T2, hPTHR; experiment: cAMP dose-response in HKRK-B64 cells; assay type: cell-based; parameters: expressed in transfected cells
# Procedure: Cells were treated for 30 minutes at room temperature with varying concentrations of ligand in the presence of IBMX. […] Data are means (±s.e.m.) of four (FIG. 7A) or five (FIG. 7B) experiments, each performed in duplicate.
# Following treatment of cells with a ligand, the intracellular cAMP levels were measured by radioimmuno assay, as described (Shimizu et al., J. Biol. Chem. 276:49003-49012 (2001)).
# hPTHR [4] = target: T2, hPTHR; experiment: Inositol phosphate production in COS-7/hPTHR cells; assay type: cell-based; parameters: expressed in transfected cells; host or cells: COS-7, transient (Fugene-6); settings: basal 330 ± 8 cpm/well not subtracted
# Procedure: The capacity of the ligands to stimulate the production of inositol phosphates (IPs) was assessed in COS-7 cells transiently transfected with the hPTHR (FIG. 7B). Cells were treated for 30 minutes at room temperature with varying concentrations of ligand. […] Data are means (±s.e.m.) of four (FIG. 7A) or five (FIG. 7B) experiments, each performed in duplicate.
# The stimulation of intracellular inositol phosphates (IPs) was measured in transiently transfected COS-7 cells that were pre-labeled (16 hours) with ^3H-myo-D-inositol (2 μCi/ml). Cells were treated with ligand in DMEM containing fetal bovine serum (10%) and LiCl (30 mM) for 30 minutes; cells were lysed with ice cold trichloro acetic acid (5%) and IPs were extracted from the acid-lysates by ion-exchange filtration, as described (Shimizu et al., J. Biol. Chem. 276:49003-49012 (2001)).
smiles,measurement,setting,value
"CCCC[C@H](NC(=O)[C@H](CC(C)C)NC(=O)[C@H](CCC(N)=O)NC(=O)[C@H](Cc1c[nH]cn1)NC(=O)[C@H](CCC(=O)O)NC(=O)[C@H](CO)NC(=O)[C@@H](NC(=O)[C@H](C)N)C(C)C)C(=O)N[C@@H](Cc1c[nH]cn1)C(=O)N[C@@H](CC(N)=O)C(=O)N[C@@H](CC(C)C)C(=O)NCC(=O)N[C@@H](CCCCN)C(=O)N[C@@H](Cc1c[nH]cn1)C(=O)N[C@@H](CC(C)C)C(=O)N[C@@H](C)C(=O)N[C@@H](CO)C(=O)N[C@H](C(=O)N[C@@H](CCC(=O)O)C(=O)N[C@@H](CCCNC(=N)N)C(=O)N[C@@H](CCCC)C(=O)N[C@@H](CCC(N)=O)C(=O)N[C@@H](Cc1c[nH]c2ccccc12)C(=O)N[C@@H](CC(C)C)C(=O)N[C@@H](CCCNC(=N)N)C(=O)N[C@@H](CCCCN)C(=O)N[C@@H](CCCCN)C(=O)N[C@@H](CC(C)C)C(=O)N[C@@H](CCC(N)=O)C(=O)N[C@@H](CC(=O)O)C(=O)N[C@H](C(=O)N[C@@H](Cc1c[nH]cn1)C(=O)N[C@@H](CC(N)=O)C(=O)N[C@@H](Cc1ccc(O)cc1)C(N)=O)C(C)C)C(C)C [[His^5,Nle^8,21,Tyr^34]rPTH(1-34)NH2] (H-AVSEHQL[Nle]HNLGKHLASVER[Nle]QWLRKKLQDVHNY-NH2; N-terminus assumed)",R0:RG,[1],753
same,R0:RG,[1]; listed as His^5-PTH(1-34),750
same,Emax,hPTHR [2],34%
same,EC50,"hPTHR [3]; 30 min, room temperature, IBMX",2.7 nM
same,cAMP in HKRK-B64 cells Emax,hPTHR [3]; basal 5.2 ± 0.9 pmole/well not subtracted,59 ± 12 picomole/well
same,IP in COS-7/hPTHR cells Emax,hPTHR [4],"2,231 ± 229 cpm/well"

# Source: US9057727B2, “Screening methods using G-protein coupled receptors and related compositions” (The General Hospital Corporation, priority 2007, dated 2015)
